Assay results published in the supplement of paper PMC5908809.

How the values were obtained:
[1] = test system: normal NK cells expanded with K562-aAPC; test: drug sensitivity score (DSS) (DSS units); higher = more sensitive; extreme values may be limits of the assay; conditions: 72 h; IL-2 2.5 ng/mL
Procedure: (§1)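 Drug sensitivity and resistance testing on K562-aAPC-expanded normal NK cells: 5 concentrations (10-fold steps over a 10,000-fold range), 72 h at 37 °C, viability by CellTiter-Glo normalised to DMSO and benzethonium chloride controls; DSS from the fitted curve.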

[2] = test system: normal NK cells expanded with K562-aAPC; test: percent inhibition of viability; higher = more inhibition; conditions: 72 h, IL-2 2.5 ng/mL
Procedure: as §1

[3] = test system: NK-YS (IL-2 2.5 ng/mL); test: drug sensitivity score (DSS) (DSS units); higher = more sensitive; extreme values may be limits of the assay; conditions: 72 h
[4] = test system: normal primary NK cells, pool 2 (3 donors) (IL-2 2.5 ng/mL); test: as above; conditions: 72 h
[5] = test system: normal primary NK cells, pool 1 (3 donors) (IL-2 2.5 ng/mL); test: as above; conditions: 72 h
[6] = test system: SNK-6 (IL-2 2.5 ng/mL); test: as above; conditions: 72 h
[7] = test system: KHYG-1 (IL-2 2.5 ng/mL); test: as above; conditions: 72 h
[8] = test system: DERL-7 (IL-2 2.5 ng/mL); test: as above; conditions: 72 h
[9] = test system: normal primary NK cells, pool 3 (3 donors) (IL-2 2.5 ng/mL); test: as above; conditions: 72 h
[10] = test system: NKL (IL-2 2.5 ng/mL); test: as above; conditions: 72 h
[11] = test system: normal primary NK cells, pool 1 (3 donors), resting (IL-2 0 ng/mL); test: as above; conditions: 72 h
[12] = test system: KAI3 (IL-2 2.5 ng/mL); test: as above; conditions: 72 h
[13] = test system: YT (IL-2 2.5 ng/mL); test: as above; conditions: 72 h
[14] = test system: NK-92 (IL-2 2.5 ng/mL); test: as above; conditions: 72 h
[15] = test system: IMC-1 (IL-2 20 ng/mL); test: as above; conditions: 72 h
[16] = test system: NK-YS (IL-2 2.5 ng/mL); test: percent inhibition of viability; higher = more inhibition; conditions: 72 h
[17] = test system: normal primary NK cells, pool 2 (3 donors) (IL-2 2.5 ng/mL); test: as above; conditions: 72 h
[18] = test system: normal primary NK cells, pool 1 (3 donors) (IL-2 2.5 ng/mL); test: as above; conditions: 72 h
[19] = test system: SNK-6 (IL-2 2.5 ng/mL); test: as above; conditions: 72 h
[20] = test system: KHYG-1 (IL-2 2.5 ng/mL); test: as above; conditions: 72 h
[21] = test system: DERL-7 (IL-2 2.5 ng/mL); test: as above; conditions: 72 h
[22] = test system: normal primary NK cells, pool 3 (3 donors) (IL-2 2.5 ng/mL); test: as above; conditions: 72 h
[23] = test system: NKL (IL-2 2.5 ng/mL); test: as above; conditions: 72 h
[24] = test system: normal primary NK cells, pool 1 (3 donors), resting (IL-2 0 ng/mL); test: as above; conditions: 72 h
[25] = test system: KAI3 (IL-2 2.5 ng/mL); test: as above; conditions: 72 h
[26] = test system: YT (IL-2 2.5 ng/mL); test: as above; conditions: 72 h
[27] = test system: NK-92 (IL-2 2.5 ng/mL); test: as above; conditions: 72 h
[28] = test system: IMC-1 (IL-2 20 ng/mL); test: as above; conditions: 72 h

CCc1c2c(nc3ccc(OC(=O)N4CCC(N5CCCCC5)CC4)cc13)-c1cc3c(c(=O)n1C2)COC(=O)[C@]3(O)CC [Irinotecan] (max concentration tested 10000 nM)
Conditions	drug sensitivity score
[1]	8.77
[3]	18.3
[4]	1.23
[5]	0.5
[6]	18.7
[7]	21.9
[8]	13.6
[9]	2.6
[10]	25.6
[11]	0
[12]	19.5
[13]	14.6
[14]	22.4
[15]	17.4

percent inhibition of viability [%]
Conditions	1 nM	10 nM	100 nM	1000 nM	10000 nM
[2]	-0.14	-0.75	0.82	45.8	61
[16]	-7.5	-7.35	7.27	94.2	98.5
[17]	1.46	0.89	3.4	10	20.8
[18]	-8.27	6.89	-1.05	3.55	14.4
[19]	18.2	-16.5	10.3	93.8	98.5
[20]	0.37	-3.33	25.7	104	109
[21]	-4.74	4.74	6.64	65.6	96.7
[22]	3.5	8.16	16.4	10.7	17.2
[23]	-2.62	5.5	62.6	105	108
[24]	4.36	9.89	22.8	2.26	-9.62
[25]	16.1	10.6	29.7	88.8	84.8
[26]	-5.37	-7.93	2.4	78.1	108
[27]	0.95	-2.29	30	104	109
[28]	-2.65	-6.08	0	95.8	99.6

CC(=O)c1c(C)c2cnc(Nc3ccc(N4CCNCC4)cn3)nc2n(C2CCCC2)c1=O [Palbociclib] (max concentration tested 10000 nM)
Conditions	drug sensitivity score
[1]	7.9
[3]	9.09
[4]	4
[5]	3.66
[6]	0
[7]	16.8
[8]	8.89
[9]	3.41
[10]	9.37
[11]	2.9
[12]	3.18
[13]	6.16
[14]	5.65
[15]	6.58

percent inhibition of viability [%]
Conditions	1 nM	10 nM	100 nM	1000 nM	10000 nM
[2]	1.29	2.27	11	16.3	94.1
[16]	2.65	4.48	17.3	37.1	61.5
[17]	-10.6	-5.61	1.26	2.75	66.1
[18]	-11.6	-7.3	-7.79	-6.34	74.7
[19]	27.7	15.6	28.3	9.56	32.5
[20]	-0.2	2.78	14.7	81.5	91.9
[21]	-8.16	4.2	8.47	32.2	90.9
[22]	-13.2	-11.6	6.3	-3.24	67
[23]	-10.3	-8.16	-14.5	25	104
[24]	6.42	-17.5	-3.52	-17	68.2
[25]	-3.55	-10.6	-0.36	0.62	57.6
[26]	2.18	0.66	6.83	31.3	37
[27]	6.01	-5.34	15.5	12.9	65.7
[28]	-2.52	-7.06	-2.86	6.43	101

O=C(O)CC1CC(c2ccccc2)=NO1 (configuration not stated) [VGX-1027] (max concentration tested 10000 nM)
Conditions	drug sensitivity score
[1]	0.56
[3]	0.79
[4]	0
[5]	4.99
[6]	0
[7]	1.09
[8]	0
[9]	0
[10]	2.41
[11]	0
[12]	3.28
[13]	1.27
[14]	2.51
[15]	0.28

percent inhibition of viability [%]
Conditions	1 nM	10 nM	100 nM	1000 nM	10000 nM
[2]	-7.12	-7.03	0.76	6.38	14.7
[16]	-1.78	-5.47	0.49	4.16	16.7
[17]	-4.95	7.51	2.82	7.55	7.46
[18]	-3.12	16.9	11.2	17.1	11.4
[19]	-0.72	-26.7	-22.3	-7.03	3.07
[20]	0.61	-5.96	-1.03	3.73	20
[21]	0.25	-1.69	-4.26	-3.18	-6.46
[22]	-13.4	4.04	5.21	2.93	6.93
[23]	-7.13	-10.2	1.01	15.5	23.6
[24]	3.76	20.2	15.6	10.9	5.12
[25]	-6.5	-1.11	1.3	12.6	35.1
[26]	-2.93	-7	-1.39	5.41	20.1
[27]	-3.95	-4.08	-2.12	11.7	26.6
[28]	0.5	0.17	6.38	5.66	15.5
